From patent publication US9448244B2, “Compound, and method for measuring iron concentration by using novel compound as chelate color former” (WAKO PURE CHEMICAL INDUSTRIES, LTD., priority 2012, dated 2016)
“Also recorded” adds a separate entry of the source.

Tests used:
[1] = Absorbance measurement of iron chelate color development, first reagent solution pH 8.0 (Example 3 / Comparative Example 1); type: physicochemical; conditions: aqueous iron solution 200 μg/dL; R-1 tricine pH 8.0, R-2 tricine pH 8.0; color former 0.23 mM; 37° C.
Method: (§1) [Preparation of Reagent Solution]
(§2) (R-1) First Reagent Solution:
A 100 mM tricine buffer solution (pH 8.0) containing 0.5% (w/v) polyvinylpyrrolidone (K-90) (produced by Wako Pure Chemical Industries, Ltd.) was used as the first reagent solution.
(§3) (R-2) Second Reagent Solution:
A 100 mM tricine buffer solution (pH 8.0) containing 1 mM 4S-SPF synthesized in Example 1 or 1 mM 2S-4CPF synthesized in Example 2 was used as the second reagent solution.
Aqueous ferrous ammonium sulfate solution (containing 200 μg/dL iron) was prepared and used as a sample.
(§4) [Measurement of Absorbance]
For the above-described sample, the measurement of absorbance was carried out using the reagent solution described above, and using JEOL BM6050 automatic analyzer (manufactured by JEOL Co., Ltd.) by the following measurement conditions. In addition, when the measurement of reagent blank, measurement was carried out in the same manner using physiological saline instead of the sample.
Analysis method/Reaction time: [EPA] [10]
Measurement point: [44], [47]-[95], [98].
Wavelength (secondary/dominant): [694] [596]
Sample volume: 8 μL (2 times dilution at measurement)
Measurement temperature: 37° C.
It should be noted that the concentration of 4S-SPF or 2S-4CPF at the time of measurement was 0.23 mM.
A 100 mM tricine buffer solution (pH 8.0) containing 0.5% (w/v) polyvinylpyrrolidone (K-90) was used as the first reagent solution.
A 100 mM tricine buffer solution (pH 8.0) containing 1 mM CPF was used as the second reagent solution. The CPF was synthesized according to the method described in the Mitsuru Hoshino et al., Yakugaku Zassi, 2011, vol. 131, No. 7, p. 1095-1101 (Non-Patent Literature 1), and used.
Aqueous ferrous ammonium sulfate solution (containing 200 μg/dL iron) prepared and used as a sample.
For the above-described sample, the measurement of absorbance was carried out using the reagent solution described above and using JEOL BM6050 automatic analyzer (manufactured by JEOL Co., Ltd.) by the same measurement conditions as performed in Example 3. […]

[2] = Absorbance measurement of iron chelate color development, first reagent solution pH 3.2 (Example 4 / Comparative Example 2); type: physicochemical; conditions: aqueous iron solution 200 μg/dL; R-1 glycine pH 3.2 (condition of serum iron measurement), R-2 tricine pH 9.0; color former 0.23 mM
Method: as §1, §2
A 10 mM glycine buffer solution (pH 3.2) containing 0.5% (w/v) polyvinylpyrrolidone (K-90) (produced by Wako Pure Chemical Industries, Ltd.) was used as the first reagent solution.
as §3
A 100 mM tricine buffer solution (pH 9.0) containing 1 mM 4S-SPF which was synthesized in Example 1 or 1 mM 2S-4CPF which was synthesized in Example 2 was used as the second reagent solution.
The sample used was same as used in Example 3.
as §4
For the above-described sample, the measurement of absorbance was carried out using the reagent solution described above and using JEOL BM6050 automatic analyzer (manufactured by JEOL Co., Ltd.) by the same measurement conditions as performed in Example 3.
It should be noted that, the concentration of 4S-SPF or 2S-4CPF at the time of measurement was 0.23 mM.
A 10 mM glycine buffer solution (pH 3.2) containing 0.5% (w/v) polyvinylpyrrolidone (K-90) was used as the first reagent solution.
A 100 mM tricine buffer solution (pH 9.0) containing 1 mM CPF was used as the second reagent solution. CPF was synthesized according to the method described in the Mitsuru Hoshino et al., Yakugaku Zassi, 2011, vol. 131, No. 7, p. 1095-1101 (Non-Patent Literature 1), and used.
The sample used was the same as used in Example 4.
For the above-described sample, the measurement of absorbance was carried out using the reagent solution described above and using JEOL BM6050 automatic analyzer (manufactured by JEOL Co., Ltd.) by the same measurement conditions as performed in Example 4.
It should be noted that, the concentration of the CPF at the time of measurement was 0.23

color fading after color development [1]	Structure (SMILES)	color fading after color development [2]
color fading was not confirmed	O=c1cc2oc3cc(O)c(O)cc3c(-c3ccc(S(=O)(=O)O)cc3S(=O)(=O)O)c-2cc1O [4S-SPF, 9-(2,4-disulfophenyl)-2,3,7-trihydroxy-6-fluorone]	fading after color development was not observed
color fading was not confirmed	O=C(O)c1ccc(-c2c3cc(O)c(=O)cc-3oc3cc(O)c(O)cc23)c(S(=O)(=O)O)c1 [2S-4CPF, 9-(4-carboxy-2-sulfophenyl)-2,3,7-trihydroxy-6-fluorone]	fading after color development was not observed

Structure (SMILES)	color fading after color development [1]	color fading after color development [2]
O=C(O)c1ccccc1-c1c2cc(O)c(=O)cc-2oc2cc(O)c(O)cc12 [CPF, 9-(2-carboxyphenyl)-2,3,7-trihydroxy-6-fluorone, reference compound]	color fading after color development was observed	color fading after color development was observed; also recorded: fading after color development was remarkable
